The assay has as its system HMOX1. The assay can be described thus: HMOX1 Protein Assay (immunostaining of HO-1 in NHLF cells, GE InCell 1000). The conditions noted are these: Homo sapiens, fold change above DMSO treated cells, 16 h; for fold induction at 5 µM: 5 μM compound. The class given is cell-based. The gist of the method:
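Fold induction of HO-1 over vehicle, normally at 5 μM compound (asterisk marks 3 μM), in 0.8% DMSO medium. Normal human lung fibroblasts were treated 16 h, then paraformaldehyde-fixed, anti-HO-1/Alexa 488 stained with Hoechst, and read by high-content imaging.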

Structures are written as SMILES.

For `Cn1c(Nc2nc3ccc(Cl)cc3s2)nc2cc(C(=O)NCCCCO)ccc21` [Example 220, 2-(6-Chloro-benzothiazol-2-ylamino)-1-methyl-1H-benzoimidazole-5-carboxylic acid (4-hydroxy-butyl)-amide], the fold induction at 5 µM was 61.9. On the same count and under the same terms, under `CN(C)C(=O)CNC(=O)c1cc2nc(Nc3nc4ccc(OC(F)(F)F)cc4s3)n(C)c2cc1F` [Example 58, 6-Fluoro-1-methyl-2-(6-trifluoromethoxy-benzothiazol-2-ylamino)-1H-benzoimidazole-5-carboxylic acid dimethylcarbamoylmethyl-amide] stands 32.8; under `CN(C)C(=O)C(C)(C)NC(=O)c1ccc2c(c1)nc(Nc1nc3ccc(OC(F)(F)F)cc3s1)n2C` [Example 151, 1-Methyl-2-(6-trifluoromethoxy-benzothiazol-2-ylamino)-1H-benzimidazole-5-carboxylic acid (1-dimethylcarbamoyl-1-methyl-ethyl)-amide], 41.3. `Cn1c(Nc2nc3ccc(Cl)cc3s2)nc2cc(C(=O)NCCOCC(F)F)ccc21` [Example 259, 2-(6-Chloro-benzothiazol-2-ylamino)-1-methyl-1H-benzoimidazole-5-carboxylic acid [2-(2,2-difluoro-ethoxy)-ethyl]-amide]: the fold induction at 3 µM (3 μM compound (asterisk)) was 25.4.

Compound `CCN(CC)c1cc2c(cc1C(=O)NCC(=O)N(C)C)nc(Nc1nc3ccc(OC(F)(F)F)cc3s1)n2C` [Example 361, 6-Diethylamino-1-methyl-2-(6-trifluoromethoxy-benzothiazol-2-ylamino)-1H-benzoimidazole-5-carboxylic acid dimethylcarbamoylmethyl-amide] returned a fold induction at 5 µM of 28.8. Compound `Cn1c(Nc2nc3ccc(OC(F)(F)F)cc3s2)nc2cc(C(=O)NCCOC(F)(F)F)ccc21` [Example 44, 1-Methyl-2-(6-trifluoromethoxy-benzothiazol-2-ylamino)-1H-benzoimidazole-5-carboxylic acid (2-trifluoromethoxy-ethyl)-amide] had a fold induction at 5 µM of 12.1. On the same count and under the same terms, the same measure for `CN(C)C1CCN(C(=O)CNC(=O)c2ccc3c(c2)nc(Nc2nc4ccc(OC(F)(F)F)cc4s2)n3C)CC1` [Example 455, 1-Methyl-2-(6-trifluoromethoxy-benzothiazol-2-ylamino)-1H-benzoimidazole-5-carboxylic acid [2-(4-dimethylamino-piperidin-1-yl)-2-oxo-ethyl]-amide]: 80.4; for `COC(=O)c1ccc2c(c1)nc(Nc1nc3ccc(SC(F)(F)F)cc3s1)n2C` [Example 132, 1-Methyl-2-(6-trifluoromethylsulfanyl-benzothiazol-2-ylamino)-1H-benzoimidazole-5-carboxylic acid methyl ester]: 5.8; for `CCn1c(Nc2nc3ccc(OC(F)(F)F)cc3s2)nc2cc(C(=O)NCC(=O)N(C)C)ccc21` [Example 186, 1-Ethyl-2-(6-trifluoromethoxy-benzothiazol-2-ylamino)-1H-benzoimidazole-5-carboxylic acid dimethylcarbamoylmethyl-amide]: 20.2. `Cn1c(Nc2nc3ccc(OC(F)(F)F)cc3s2)nc2cc(C(=O)NCC(=O)N3CCOCC3)cnc21` [Example 420, 3-Methyl-2-(6-trifluoromethoxy-benzothiazol-2-ylamino)-3H-imidazo[4,5-b]pyridine-6-carboxylic acid (2-morpholin-4-yl-2-oxo-ethyl)-amide]: the fold induction at 5 µM turned out to be 33. On to `CNC(=O)c1ccc2c(c1)nc(Nc1nc3ccc(S(C)(=O)=O)cc3s1)n2C` [Example 126, 2-(6-Methanesulfonyl-benzothiazol-2-ylamino)-1-methyl-1H-benzimidazole-5-carboxylic acid methylamide], for which the fold induction at 5 µM was 4.6.

As usually defined, the fold induction is the signal under treatment as a multiple of the control signal. Read a high fold induction as a strong induction.
